The source of these data is patent US11253517B2, “Small molecule regulators of steroid receptor coactivators and methods of use thereof” (BAYLOR COLLEGE OF MEDICINE, priority 2016, dated 2022).

Each structure is given as a SMILES string.

Holding throughout (assay type): cell-based
In one experiment the target is T1, SRC-3 (Homo sapiens, UniProt Q9Y6Q9).
T1 construct: expressed in transfected cells; host or cells: HeLa
Nature of the experiment: SRC-3 intrinsic transcriptional activity luciferase assay in HeLa cells. The note with it: pG5-LUC reporter with pBIND-SRC-3, 24 hours. On the procedure:
Luciferase assays were performed in HeLa cells transiently transfected with the reporter vector pG5-LUC in combination with expression vectors for pBIND and pBIND-SRC-3 before incubation with the compound for 24 hours. In FIG. 1, the first histogram bar in each set represents pBIND; the second histogram bar in each set represents SRC-1; the third histogram bar in each set represents SRC-2; and the fourth histogram bar in each set represents SRC-3.
Intrinsic transcriptional activity assays were conducted as for FIG. 1. In FIG. 2, the left histogram bar in each set represents pBIND and the right histogram bar in each set represents pBIND-SRC3.
The effects of the SI compounds described herein on the intrinsic transcriptional activities of SRC-1, SRC-2 and SRC-3 were investigated. HeLa cells were transiently transfected with a pGL5-LUC reporter and expression vectors for pBIND and pBIND-SRC-1, pBIND-SRC-2, pBIND-SRC-3, followed by 24 hours of treatment with different concentrations of SI compounds. Compounds as described herein, including SI-9, SI-10, SI-11, SI-12, SI-14, SI-15, SI-16, SI-17, SI-19, SI-20, and SI-21, were tested for their ability to inhibit the intrinsic transcriptional activity of SRC-1, SRC-2 and SRC-3 in FIG. 1.

The subject of experiment [1] is MDA-MB-468 cells. As to the kind of experiment: IC50 in MDA-MB-468 cells, 72 hours incubation. The note with it: Homo sapiens. On the procedure:
(§1) The compounds described herein were synthesized as described in Example 1. The IC50 values were measured in MDA-MB-468, BT-474, and MCF-7 cells by incubating a series of concentrations of the corresponding compounds for 72 hours.
(§2) In Tables 1 and 2, “−” represents IC50 or EC50 values greater than 10 μM; “+” represents IC50 or EC50 values from greater than 1 μM to 10 μM; “++” represents IC50 or EC50 values from 0.1 μM to 1 μM; and “+++” represents IC50 or EC50 values less than 0.1 μM.

The next experiment deals with BT-474 cells. As to the kind of experiment: IC50 in BT-474 cells, 72 hours incubation. The settings on record: Homo sapiens. How it is done: as §1, §2
A further experiment concerns MCF-7 cells. Nature of the experiment: IC50 in MCF-7 cells, 72 hours incubation. The note with it: Homo sapiens, MCF7. How it is done:
as §1, §2

Experiment [2] deals with MDA-MB-468 cells. Nature of the experiment: EC50 in MDA-MB-468 cells, 72 hours incubation. The settings on record: Homo sapiens. On the procedure:
The EC50 values of certain compounds were measured in MDA-MB-468 cells by incubating a series of concentrations of the corresponding compounds for 72 hours.
as §2

T1 sequence (Q9Y6Q9 whole entry): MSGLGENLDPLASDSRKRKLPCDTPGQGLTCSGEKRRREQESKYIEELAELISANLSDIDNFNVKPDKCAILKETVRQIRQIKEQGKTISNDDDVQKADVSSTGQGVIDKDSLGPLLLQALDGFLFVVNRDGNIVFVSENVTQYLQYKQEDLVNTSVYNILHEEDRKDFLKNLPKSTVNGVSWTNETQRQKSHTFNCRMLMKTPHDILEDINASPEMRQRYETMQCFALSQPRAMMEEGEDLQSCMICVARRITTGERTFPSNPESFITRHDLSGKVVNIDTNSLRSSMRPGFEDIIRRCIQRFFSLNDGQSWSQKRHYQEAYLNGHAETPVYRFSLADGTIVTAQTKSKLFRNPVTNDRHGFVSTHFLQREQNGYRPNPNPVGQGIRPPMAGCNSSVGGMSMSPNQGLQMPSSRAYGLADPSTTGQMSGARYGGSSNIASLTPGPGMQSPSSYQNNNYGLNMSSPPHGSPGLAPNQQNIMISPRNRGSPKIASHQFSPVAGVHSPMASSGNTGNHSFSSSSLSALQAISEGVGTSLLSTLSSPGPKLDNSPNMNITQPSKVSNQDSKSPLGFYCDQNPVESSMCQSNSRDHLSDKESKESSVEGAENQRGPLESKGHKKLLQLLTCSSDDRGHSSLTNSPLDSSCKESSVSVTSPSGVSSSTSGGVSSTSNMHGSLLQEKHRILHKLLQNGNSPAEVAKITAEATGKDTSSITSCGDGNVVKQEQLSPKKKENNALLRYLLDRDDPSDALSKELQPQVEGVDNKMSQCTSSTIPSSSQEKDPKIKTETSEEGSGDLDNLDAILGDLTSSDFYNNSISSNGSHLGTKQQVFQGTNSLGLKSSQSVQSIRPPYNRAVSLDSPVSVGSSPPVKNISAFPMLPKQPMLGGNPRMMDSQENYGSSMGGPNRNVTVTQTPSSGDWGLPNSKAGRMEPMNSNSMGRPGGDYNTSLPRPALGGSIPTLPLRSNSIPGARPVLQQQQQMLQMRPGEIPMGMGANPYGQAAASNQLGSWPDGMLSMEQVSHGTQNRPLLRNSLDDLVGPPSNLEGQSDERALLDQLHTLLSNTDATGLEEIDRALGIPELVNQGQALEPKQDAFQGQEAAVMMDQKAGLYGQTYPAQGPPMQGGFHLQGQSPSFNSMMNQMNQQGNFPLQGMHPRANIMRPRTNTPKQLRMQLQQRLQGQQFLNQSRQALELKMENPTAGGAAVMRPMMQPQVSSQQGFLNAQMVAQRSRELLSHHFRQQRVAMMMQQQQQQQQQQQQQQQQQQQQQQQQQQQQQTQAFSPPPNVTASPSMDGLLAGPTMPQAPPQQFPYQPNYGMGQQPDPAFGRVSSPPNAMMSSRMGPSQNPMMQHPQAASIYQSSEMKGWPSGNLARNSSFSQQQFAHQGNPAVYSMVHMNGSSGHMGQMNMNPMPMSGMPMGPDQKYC

In the case of `C/C(=N\Nc1nc2ccccc2n1C)c1ccc[nH]1` [SI-3], the “effect on SRC-3 intrinsic activity” value at SRC-3 is “able to stimulate SRC-3 intrinsic activity at certain doses”.

With `C/C(=N\Nc1nc2ccccc2n1C)c1nccn1C` [SI-4], the “effect on SRC-3 intrinsic activity” value at SRC-3 was “able to stimulate SRC-3 intrinsic activity at certain doses”.

Consider `C/C(=N\Nc1nc2ccccc2n1C)c1ncco1` [SI-5], for which the “effect on SRC-3 intrinsic activity” value on SRC-3 is “able to stimulate SRC-3 intrinsic activity at certain doses”. Consider `C/C(=N\Nc1nc2ccccc2n1C)c1nccs1` [SI-6], for which, in the experiment on MDA-MB-468 cells [1], the IC50 fell in the range of 100 to 1000 nM. For the same molecule, at SRC-3, the “effect on SRC-3 intrinsic activity” value is on record as “able to stimulate SRC-3 intrinsic activity at certain doses”.

For the molecule `C/C(=N\Nc1nc2ccccc2n1C)c1ccco1` [SI-7], on SRC-3, the “effect on SRC-3 intrinsic activity” value is “able to stimulate SRC-3 intrinsic activity at certain doses”. As for `C/C(=N\Nc1nc2ccccc2n1C)c1cccs1` [SI-8], the “effect on SRC-3 intrinsic activity” value at SRC-3 is recorded as “able to stimulate SRC-3 intrinsic activity at certain doses”.

The molecule `C/C(=N\Nc1nc2cc(F)c(F)cc2n1C)c1ccccn1` [SI-9] gave an IC50 in the experiment with BT-474 cells of less than 100 nM. Turning to `C/C(=N\Nc1nc2cc(F)c(F)cc2n1C)c1ncccn1` [SI-10], the 50% inhibitory concentration (IC50) in the experiment with MCF-7 cells and in the experiment with BT-474 cells was less than 100 nM each time. On to `C/C(=N\Nc1nc2cc(F)c(F)cc2n1C)c1ccncn1` [SI-11], for which the IC50 in the experiment with MCF-7 cells and in the experiment on BT-474 cells was less than 100 nM each time. Take `C/C(=N\Nc1nc2cc(F)ccc2n1C)c1ccccn1` [SI-14]: the IC50 with MCF-7 cells and in the experiment with BT-474 cells was less than 100 nM each time.

For the molecule `C/C(=N\Nc1nc2cc(F)ccc2n1C)c1ncccn1` [SI-15], the IC50 in the experiment on MCF-7 cells and in the experiment on BT-474 cells was less than 100 nM in each case. In the case of `C/C(=N\Nc1nc2cc(F)ccc2n1C)c1ccncn1` [SI-16], the IC50 in the experiment with MCF-7 cells and in the experiment with BT-474 cells was less than 100 nM in each case. Take `C/C(=N\Nc1nc2cc(F)ccc2n1C)c1ccc(F)cn1` [SI-17]: the IC50 with MCF-7 cells and with BT-474 cells was less than 100 nM throughout.

`C/C(=N\Nc1nc2ccccc2n1C)c1ncccn1` [SI-19]: the 50% inhibitory concentration (IC50) in the experiment on MCF-7 cells and with BT-474 cells was less than 100 nM each time. For the molecule `C/C(=N\Nc1nc2ccccc2n1C)c1ccncn1` [SI-20], the IC50 in the experiment on MCF-7 cells and with BT-474 cells was less than 100 nM in each case. As for `C/C(=N\Nc1nc2ccccc2n1C)c1ccc(F)cn1` [SI-21], the IC50 in the experiment on MCF-7 cells and in the experiment on BT-474 cells was less than 100 nM throughout. With `Cn1c(NNC(=O)c2ccccn2)nc2ccccc21` [SI-C-01], the EC50 in the experiment on MDA-MB-468 cells [2] is 100 to 1000 nM. Consider `C/C(=N\Nc1nc2ccccc2n1C)c1ncccc1Br` [SI-E-01P], for which, in the experiment on MDA-MB-468 cells [2], the EC50 lay within 100 to 1000 nM.

As a reminder, the IC50 is the midpoint of a concentration-inhibition curve. High values mean lower potency, low ones higher potency. The EC50 is the midpoint of the concentration-response curve.
